Assay [1] concerns BALB/c DO.11.10 bone marrow cells cultured for dendritic cells, cocultured with DO.11.10 T cells. The experiment in a line: Education of mouse dendritic cells and stimulation of T-cells, cytokine content of supernatant. It is filed as cell-based. As to the method: Whelan et al. (J. Immunol 164, 6453-6460, 2000) addressed the problem in mice by an experiment in which mouse bone marrow cells were grown for 6 days in culture with GM-CSF to give immature dendritic cells. These dendritic cells were then incubated overnight with LPS (known to drive cells to DC1) or with a nematode antigen. The reason for the choice of nematode antigen was that injection of this antigen in vivo gives rise to a Th2 response in animals. After this so-called “education” of the dendritic cells, they were washed and subsequently incubated with naive T cells in the presence of antigenic stimulus. The experiment was possible because of the use of transgenic mice in which all the T cells respond to the same peptide (OVA323-339) which absolves the system from any question of bias of the T cell response at the level of the T cells. Any bias should be a consequence of the “education” of the dendritic cells. After three days of incubation the cytokine responses produced by the T cells, were measured by ELISA. […] In contrast, nematode antigen incubation gave rise to more IL-4 (Th2) than did controls while the LPS incubation inhibited the IL4 response. Therefore, the nematode antigen was said to drive cells to DC2. A similar method was used for testing the compounds of the present invention: • 1. Bone marrow cells were extracted from the leg bones of DO.11.10 mice transgenic for the TcR. All cells from these mice respond to the OVA peptide ([…]). • 2. Bone marrow cells were plated at 10^6 cells/ml in 100 mm diameter tissue culture petri dishes in Iscove's medium supplemented with 10% FCS, […], 1 mM sodium pyruvate, penicillin/streptomycin (according to manufacturer's recommendations), non-essential amino acids, 50 μM β-mercaptoethanol and 10 ng/ml mGM-CSF. • 3. After 4 days, the medium was carefully removed and replaced with fresh medium • 4. After 6 days, the non-adherent cells were harvested and used as immature dendritic cells • 5. The immature dendritic cells are plated at 1×10^6 cells/ml, 1 ml/well in 24 well plates in the above medium with various reagents added at various concentrations and incubated overnight. This is the stage in which the dendritic cells are “educated” • 6. The next day the cells were harvested and washed 3 times then resuspended at 5×10^4 cells/ml in 1 ml of the above medium but without the addition of GM-CSF to be cocultured with T cells • 7. […] 5×10^5 T cells were cultured with the dendritic cells from step 6 in the presence of various concentrations of the OVA peptide (0, 0.3 nM, 3 nM and 30 nM). • 9. After 3 days PMA (50 ng/ml) and ionomycin (500 ng/ml) were added to further stimulate the cells. • 10. The next day the cell supernatants were collected and assayed for cytokine content (Interferon γ, IL4, IL-10 and IL-12).
The compound was tested for stimulation of DO.11.10 bone marrow cells according to the assay described above (Production and education of mouse dendritic cells and stimulation of T-cells).
BALB/c DO.11.10 bone marrow cells were cultured for dendritic cells and then stimulated with LPS 1 μg/ml, LPS 10 μg/ml, hsp60 3 μg/ml, hsp60 10 μg/ml, p277 5 μg/ml and p277 50 μg/ml. The cells were then transferred to wells with T cells from fresh BALB/c DO.11.10 mice and stimulated with OVA peptide at different concentrations (0, 0.3 nM, 3 nM, 30 nM). Supernatant was collected after 48 hours for assay. 30 μl was taken for IFN, 40 μl for IL4 and IL-10 and 50 μl for IL-12 assays. The results are presented in the following tables, as amount of cytokine (pg/ml), and in FIG. 1.

In assay [2] the test system is peripheral blood mononuclear cells cultured with GM-CSF and IL4 (dendritic cells). The assay can be described thus: Peripheral blood derived dendritic cells: secreted cytokines (IP-10, IL-8) and cell surface antigens (CD83, CD86). It is filed as cell-based, human. As for the experimental part:
The effect of the compositions of the present invention on peripheral blood derived dendritic cells, was tested according to a protocol described by Re, F. and Strominger, J. L. 2001. Toll-like receptor 2 (Tlr2) and Tlr4 differentially activate human dendritic cells. (J Biol Chem 276: 37692-9). According to this method immature dendritic cells derived from human peripheral blood are used. The outcome after incubating the cells with tested molecules is different if the stimulation is through the Toll 4 receptor or the Toll 2 receptor. According to the authors, Toll 2 signaling by stimulation with zymosan is associated with a Th2 kind of response (exemplified by IL-8) and Toll 4 signaling, such as obtained by LPS stimulation (exemplified by IP-10), with a Th1 type of response. The compositions of the present invention were tested using a similar assay system in order to check which stimulation type they induce. […] The increase in CD86 expression after exposure of APCs to Hsps or Hsp derived peptides is important since CD86 (B7.2) is an essential component of the immunological synapse formed between T cells and APC. This synapse consists of CD80 and CD86 on the side of the APC and CD28 and CD40 on the side of the T cell. T cell recognition of peptide on APC without the concurrent expression of CD86 gives rise to anergy instead of a T cell response. Therefore in order to produce a response all components must be present.
The assay was based on the protocol described by Re, F. and Strominger, J. L. 2001. Toll-like receptor 2 (Tlr2) and Tlr4 differentially activate human dendritic cells. (J. Biol Chem 276: 37692-9).
Peripheral blood mononuclear cells were prepared from leucocytes from blood lots obtained from the blood bank. The cells were plated at 10^8 cells/10 ml/Petri dish in RPMI medium including 10% FCS and allowed to adhere at 37° C. for 2 hours. At the end of this time, the non-adherent cells were washed off the plates with PBS and the adherent cells resuspended in fresh medium as before. The cells were then cultured for at least 8 days with the addition of GM-CSF and IL4 with the medium changed every 4 days. After this time, the cells were harvested and cultured overnight with LPS, zymosan or p277(Val^6-Va^11). The next day, the supernatant was collected for assay of the secreted cytokines (IP-10 and IL-8) and the cells were harvested for investigation of the cell surface antigens (CD83, CD86). CD83 is an antigen characteristic of dendritic cells. […] The second marker, CD86 (B7.2) is characteristic of mature dendritic cells. The marker CD86 is an essential component of the immunological synapse formed between T cells and APC. This synapse consists of CD80 and CD86 on the side of the APC and CD28 and CD40 on the side of the T cell. This is of course in addition to the specific recognition between the T cell receptor and peptide held in the MHC of the APC. T cell recognition of peptide on APC without the concurrent expression of CD86 gives rise to anergy instead of a T cell response.

In a further assay the test system is mouse monocyte line J774. The experiment in a line: Secretion of oxygen free radicals (oxidative burst) from mouse monocyte line. To be noted: J774, FIG. 5. It is filed as cell-based.
[3] abbreviates: compared with non-exposed dendritic cells.
Setting [4] is: dendritic cells educated with 1 μg/ml, 0.3 nM Ova peptide.
[5] abbreviates: dendritic cells educated with 10 μg/ml, 0.3 nM Ova peptide.

Data on 2 substances can be found in patent US7576177B2, “Hsp peptides and analogs for modulation of immune responses via antigen presenting cells” (Andromeda Biotech Ltd., priority 2002, dated 2009).

As to “lipopolysaccharide [LPS, reference compound]”, in assay [1] (setting [3]), the “IFN gamma produced by T cells after treatment of dendritic cells (in words)” value is “increased IFN gamma” and the “IL-4 produced by T cells after exposure of dendritic cells (in words)” value is given as “decreased IL4”. In assay [1] (setting [4]), the “IL-4 secretion of T cells” value stood at 11.07 pg/mL, the “IL-10 secretion of T cells” value was 15.26 pg/mL and the “IL-12 secretion of T cells” value was found to be 90.00 pg/mL. Further, the “IFN secretion of T cells” value in assay [1] (dendritic cells educated with 1 μg/ml, T cells stimulated with 0.3 nM Ova peptide) was determined as 328.33 pg/mL. In assay [1] (setting [5]), the “IFN secretion of T cells” value stood at 478.89 pg/mL, the “IL-4 secretion of T cells” value is 1.07 pg/mL, the “IL-10 secretion of T cells” value amounted to 75.48 pg/mL and the “IL-12 secretion of T cells” value turned out to be 131.25 pg/mL. Further, the “maturation: percentage of cells stained with anti-CD86” value in assay [2] (overnight stimulation, FIG. 3) is reported as “increase of maturation”. In assay [2] (stimulus 10 ng/ml, overnight), this substance came in with an IL-8 of 3131 pg/mL and an IP-10 of 2520 pg/mL.
In the case of “VALLRVIPA (Homo sapien) [p277(442-450, Val^6Val^11)]”, in the assay with mouse monocyte line J774, the “inhibition of the oxidative burst (secretion of oxygen free radicals)” value is “effective”.
